Results on 25 molecules are retold here after PMC10975828, “Screening for Active Compounds of Acorus calamus against SARS-CoV-2 Viral Protease and Mechanism Prediction” (Pharmaceuticals, 2024).

Read-outs that look alike come from different tables or passages of the source.

One test deals with SARS-CoV-2 Mpro (Severe acute respiratory syndrome coronavirus 2, UniProt P0DTD1). Briefly: SARS-CoV-2 Mpro inhibition assay (fluorescence, 96-well). The class given is biochemical. The following applies: for percent inhibition at 5 µM: read-out: Inhibition at 5 μM (%); for IC50: Mpro 1 µM, inhibitor 0–20 µM, substrate 20 µM; for enzyme activity: at a concentration of 5 μM.
The next test concerns the target SARS-CoV-2 PLpro (Severe acute respiratory syndrome coronavirus 2, UniProt P0DTD1). Nature of the test: SARS-CoV-2 PLpro inhibition assay (fluorescence, 96-well). As to conditions: for percent inhibition of PLpro at 5 µM: read-out: Inhibition at 5 μM (%); for enzyme activity: 5 μM screening. The class given is biochemical.
In the next test the test system is PC12 cell. Set-up: method as in PMID 28695650. As to conditions: previous studies; cited from earlier work.
[1] abbreviates: PLpro 1 µM, inhibitor 0–20 µM, substrate 20 µM, read-out: IC50.
[2] abbreviates: Mpro, inhibitor 5 μM, substrate 1 μM, triplicate, 25 °C.
Setting [3] is: PLpro, inhibitor 5 μM, substrate 1 μM, triplicate, 25 °C.

Take `CC1(O)CCC2C(C3C1CCC3(C)O)C2(C)C` (single isomer, unassigned; (-)) [Compound 5, (-)-alloaromadendrane-3β,9β-diol]: the percent inhibition at 5 µM at SARS-CoV-2 Mpro was 78.33 ± 0.25%. Besides, the percent inhibition of PLpro at 5 µM at SARS-CoV-2 PLpro was 14.4 ± 0.88%.

On to `CC(C)C1CCC(C)(O)C2CCC(C)(O)C2C1=O` [1R,5R,7S-guaiane-4R,10R-diol-6-one], for which the IC50 on SARS-CoV-2 PLpro (setting [1]) stood at 386 ± 118 nM.

Regarding `CC(C)C1CCC(C)(O)C2CCC(C)(O)C2C1=O` [Compound 1, 1R,5R,7S-guaiane-4R,10R-diol-6-one], the percent inhibition at 5 µM at SARS-CoV-2 Mpro (setting [2]) worked out at 83.61 ± 0.01%. Also, the enzyme activity result at SARS-CoV-2 PLpro (PLpro) is “below 10%”. Besides, at SARS-CoV-2 PLpro (setting [3]), the percent inhibition of PLpro at 5 µM stood at 6.41 ± 0.43%.

In the case of `CC1=CCC(C(C)C)C(O)C2C1CCC2(C)O` (stereo not drawn) [Compound 2, 4β,6β-dihydroxy-1α,5β(H)-guai-9-ene], the percent inhibition at 5 µM at SARS-CoV-2 Mpro worked out at 85.9 ± 0.61%. At SARS-CoV-2 PLpro, the percent inhibition of PLpro at 5 µM is 14 ± 1.95%.

Take `C=C1CCC(C(C)C)C(O)C2C1CCC2(C)O` (stereo not drawn) [Compound 3, 4β,6β-dihydroxy-1α,5β(H)-guai-10(14)-ene]: the percent inhibition at 5 µM at SARS-CoV-2 Mpro amounted to 74.7 ± 0.05%. For the same molecule, on SARS-CoV-2 PLpro, the percent inhibition of PLpro at 5 µM amounted to 11.3 ± 0.55%.

On to `CC(C)C1CCC(C)(O)C2CCC(C)(O)C2C1O` (stereo not shown) [Compound 4, teuclatriol], for which, at SARS-CoV-2 Mpro, the percent inhibition at 5 µM came out at 87.19 ± 0.31%. For the same molecule, the percent inhibition of PLpro at 5 µM on SARS-CoV-2 PLpro is 11.8 ± 1.99%.

As for `C=C1CC[C@@H]2[C@@](O)(C1)[C@H](C(C)C)CC[C@@]2(C)O` [Compound 6, isocalamendiol], the percent inhibition at 5 µM at SARS-CoV-2 Mpro (setting [2]) was found to be 80.31 ± 0.79%. Besides, the IC50 at SARS-CoV-2 PLpro (setting [1]) stood at 1670 ± 496 nM. Further, the enzyme activity result on SARS-CoV-2 PLpro (PLpro) is reported as “below 10%”. The percent inhibition of PLpro at 5 µM at SARS-CoV-2 PLpro (setting [3]) came to 6.89 ± 1.65%.

For `C=C1CC[C@@H]2[C@@](O)(C1)[C@H](C(C)C)CC[C@]2(C)O` [Compound 7, calamendiol], the percent inhibition at 5 µM at SARS-CoV-2 Mpro (setting [2]) amounted to 78.58 ± 0.67%. In addition, the percent inhibition of PLpro at 5 µM at SARS-CoV-2 PLpro (setting [3]) came to 20.1 ± 2.96%.

Take `C=C1CC[C@@H]2[C@](C)(O)[C@H](O)C[C@H](C(C)C)[C@@]2(O)C1` [Compound 9, calamentriol A]: the percent inhibition at 5 µM at SARS-CoV-2 Mpro worked out at 82.9 ± 7.31%. The percent inhibition of PLpro at 5 µM at SARS-CoV-2 PLpro was 22.3 ± 4.83%.

As for `CC1=CC[C@H]2[C@](O)(C1)[C@@H](C(C)C)CC[C@@]2(C)O` [Compound 10, 1β,7β(H)-3-cadinadiene-6α,10α-diol], on SARS-CoV-2 Mpro, the percent inhibition at 5 µM was 85.6 ± 0.88%. The percent inhibition of PLpro at 5 µM on SARS-CoV-2 PLpro is 26.6 ± 3.38%.

With `CC(C)[C@@H]1CC[C@](C)(O)[C@@H]2CC[C@](C)(O)C[C@]21O` [Compound 11, calamentriol B], on SARS-CoV-2 Mpro, the percent inhibition at 5 µM was 80.5 ± 4.82%. Further, the percent inhibition of PLpro at 5 µM on SARS-CoV-2 PLpro was 38.4 ± 7.04%.

`CC(C)[C@H]1CC[C@](C)(O)[C@H]2CC[C@@](O)(CO)C[C@]12O` [Compound 12, calamentriol C]: the percent inhibition at 5 µM on SARS-CoV-2 Mpro was found to be 70.9 ± 1.17%. The percent inhibition of PLpro at 5 µM on SARS-CoV-2 PLpro turned out to be 25.8 ± 2.25%.

With `CC(C)C1CCC(C)(O)C2=C1C(=O)C(C)(O)CC2O` (stereo not shown) [Compound 13, menecubebane B], the half-inhibitory concentration (IC50) on SARS-CoV-2 Mpro was 1720 ± 394 nM; at SARS-CoV-2 PLpro (setting [1]), 2530 ± 885 nM. Moreover, at SARS-CoV-2 Mpro (Mpro), the enzyme activity result is “less than 50%”. On SARS-CoV-2 Mpro (setting [2]), the percent inhibition at 5 µM was found to be 41.1 ± 8.77%. In addition, at SARS-CoV-2 PLpro (setting [3]), the percent inhibition of PLpro at 5 µM stood at 24.9 ± 4.91%.

Regarding `CC1=C[C@H]2[C@@H](C(C)C)CC[C@@](C)(O)[C@]2(O)[C@@H](O)C1` [Compound 14, calamentriol D], at SARS-CoV-2 Mpro, the percent inhibition at 5 µM was 81.9 ± 1.31%. Moreover, the percent inhibition of PLpro at 5 µM at SARS-CoV-2 PLpro is 25.4 ± 1.43%.

Consider `CC(C)[C@@H]1CCC(=O)C2=C1[C@H](O)[C@](C)(O)CC2` [Compound 15, oxyphyllenodiols A], for which the percent inhibition at 5 µM on SARS-CoV-2 Mpro is 79.3 ± 10.4%. For the same molecule, the percent inhibition of PLpro at 5 µM on SARS-CoV-2 PLpro was 35.3 ± 2.35%.

As for `CC(C)C1=CC[C@@]2(C)[C@H](O)CC[C@](C)(O)[C@@H]2C1` [Compound 16, oplodiol], the percent inhibition at 5 µM on SARS-CoV-2 Mpro was 78.2 ± 12.9%. The percent inhibition of PLpro at 5 µM on SARS-CoV-2 PLpro is 33.6 ± 2.46%.

Turning to `CC(C)C1CCC2(C)C(O)CCC(C)(O)C2C1O` (stereo not shown) [Compound 17, ananosmin], the percent inhibition at 5 µM on SARS-CoV-2 Mpro came to 74.6 ± 5.21%. Besides, the percent inhibition of PLpro at 5 µM at SARS-CoV-2 PLpro was 29.8 ± 1.54%.

For `CC(=O)CC[C@@]12CC(=O)O[C@]1(C(C)C)C(=O)C[C@@H]2C` [Compound 18, neo-acorane A], the IC50 against SARS-CoV-2 Mpro was found to be 630 ± 364 nM; on SARS-CoV-2 PLpro (setting [1]), 1890 ± 375 nM. The enzyme activity entry at SARS-CoV-2 Mpro (Mpro) is “less than 50%”. Besides, the percent inhibition at 5 µM on SARS-CoV-2 Mpro (setting [2]) was determined as 31 ± 1.26%. The percent inhibition of PLpro at 5 µM on SARS-CoV-2 PLpro (setting [3]) was 31.7 ± 8.07%.

For the molecule `CC(C)C(=O)[C@@]1([C@H](C)CC(=O)O)CC[C@@H](C)C(=O)C1` [Compound 19, acoric acid], the percent inhibition at 5 µM at SARS-CoV-2 Mpro (setting [2]) was 75.55 ± 0.24%. The IC50 on SARS-CoV-2 PLpro (setting [1]) came to 1450 ± 429 nM. On SARS-CoV-2 PLpro (PLpro), the enzyme activity entry was “below 10%”. Further, the percent inhibition of PLpro at 5 µM on SARS-CoV-2 PLpro (setting [3]) is 7.9 ± 1.94%.

As to `CC1CC(=O)C(O)(C(C)C)C12CCC(C)(O)C(=O)C2` (stereo not shown) [Compound 20, calamusin D], the percent inhibition at 5 µM at SARS-CoV-2 Mpro came out at 79.7 ± 8.49%. In addition, the percent inhibition of PLpro at 5 µM on SARS-CoV-2 PLpro is 22.2 ± 3.58%.

As to `CC(=O)C1CCC2C1C(C(C)C)CCC2(C)O` (stereo not shown) [Compound 21, oplopanone A], the percent inhibition at 5 µM on SARS-CoV-2 Mpro was found to be 83.3 ± 4.06%. The percent inhibition of PLpro at 5 µM at SARS-CoV-2 PLpro is 33.9 ± 5.49%.

Consider `CC(C)(O)C[C@H]1CC[C@@]2(C)[C@H](O)CC[C@](C)(O)[C@H]12` [Compound 22, bullatantriol], for which the percent inhibition at 5 µM at SARS-CoV-2 Mpro (setting [2]) came to 82.8 ± 1.58%. In addition, the IC50 at SARS-CoV-2 PLpro (setting [1]) is 1260 ± 321 nM. The enzyme activity result on SARS-CoV-2 PLpro (PLpro) is given as “below 10%”. Moreover, at SARS-CoV-2 PLpro (setting [3]), the percent inhibition of PLpro at 5 µM amounted to 10.6 ± 2.59%.

With `COc1cc2ccnc3c2c(c1O)-c1c-3cccc(OC)c1=O` [Compound 23, neo-tatarine], the “inhibitory effect on Aβ25-35-induced PC12 cell death” value in the test on PC12 cell is on record as “significant inhibitory effect”. The percent inhibition at 5 µM at SARS-CoV-2 Mpro (setting [2]) was determined as 81.5 ± 3.65%. The IC50 at SARS-CoV-2 PLpro (setting [1]) stood at 743 ± 187 nM. The enzyme activity result at SARS-CoV-2 PLpro (PLpro) is on record as “below 10%”. The percent inhibition of PLpro at 5 µM on SARS-CoV-2 PLpro (setting [3]) amounted to 6.71 ± 3.23%.

Regarding `COc1cc(OC)c(OC)cc1C=O` [Compound 24, 2,4,5-trimethoxybenzaldehyde], the percent inhibition at 5 µM at SARS-CoV-2 Mpro was found to be 68.9 ± 0.71%. Also, at SARS-CoV-2 PLpro, half-maximal inhibition (IC50) was put at 3920 ± 1290 nM and the percent inhibition of PLpro at 5 µM is 9.54 ± 0.61%. Further, the enzyme activity result at SARS-CoV-2 PLpro (PLpro) was “below 10%”.

On SARS-CoV-2 Mpro (setting [2]), calamusin H [Compound 8] had a percent inhibition of 81.7 ± 6.15%. At SARS-CoV-2 PLpro (setting [3]), the percent inhibition of PLpro at 5 µM was 14.2 ± 0.93%.
